The record followed here is patent US11730712B2, “Functionalized long-chain hydrocarbon mono- and di-carboxylic acids and derivatives thereof, and their use for the prevention or treatment of disease” (ESPERVITA THERAPEUTICS, INC., priority 2021, dated 2023).

The assay deals with C57BL/6 mice with UUO. The experiment in a line: Murine unilateral ureter obstruction (UUO) renal fibrosis model. Format: in vivo, mouse. The conditions noted are these: 100 mg/kg daily oral gavage, 9 days after UUO. As for the experimental part: Animal studies were carried out in accordance with the principles of laboratory animal care of the Canadian Council on Animal Care guidelines. Male C57BL/6 mice were obtained from Charles Rivers Laboratories. FIG. 13A summarizes the timeline for this experiment. UUO model was created as follows: male C57BL6J mice (8 weeks old from Charles River Laboratories) were anesthetized with 4% isofluorane and an anesthetic plane was maintained throughout surgery at 1.5-2% isofluorane with 1 L/min oxygen. A 0.5 cm incision was made longitudinally on the left flank. The left ureter and lower pole of the kidney was exposed, and the ureter was ligated with a […] in close proximity to the renal pelvis. A sham operation control group was created by surgical exposure of the left ureter and lower pole of the kidney followed by closure of the incision. Subcutaneous fluids were given (1.5 ml 0.9% NaCl) and the incision was closed with 4′0 silk sutures followed by staples for the skin. Starting the day of model creation, the animals were given a daily dose of either vehicle alone (sham surgery and UUO control, 1.5% CMC and 0.2% Tween-20) or vehicle containing Compound I-32 or Compound I-1 (at 100 mg/kg) by oral gavage for 9 days following surgery. At the end of the treatment period mice were anesthetized prior to euthanasia by bilateral thoraco-abdominal incision. Blood was collected by cardiac puncture, followed by kidney perfusion with cold saline through left ventricular cannulation. The left kidney was removed, a sample taken and fixed in formalin for histological analysis. Trichrome staining was done on formalin-fixed sections (4 μm) following deparaffinization according to manufacturers instructions (Sigma HT15-1KT). Images were quantified by measuring the percentage of positive area using Image J on micrographs captured at ×200 magnification using the BX41 Olympus microscope. Statistical analysis was performed using GraphPad Prism 8. A one-way ANOVA was used to determine significance. A p-value of less than or equal to 0.05 was used as the criterion of significance. This route was selected because it simulates oral administration to mammalian, including human, subjects and ensures that the correct dose of compound is ingested by each animal.
Immunohistochemistry. Formalin-fixed kidneys were embedded in paraffin, then sectioned at 4 μm. After deparaffinization, they were stained with Masson's trichrome to assess collagen content (Sigma Aldrich, catalogue no. HT15-1T), picrosirius red (PSR) to more specifically assess pathogenic collagens I and III (Polysciences, Inc., catalogue no. 24901-500), αSMA as a marker of activated, profibrotic fibroblasts (PIERCE, catalogue no. MA1-06110; 30 min steaming for antigen retrieval, antibody used at 1:5000 for 2 h at room temperature), CD3 to identify T-lymphocytes (Dako, catalogue no. A0452; 30 min steaming for antigen retrieval, antibody used at 1:500 overnight at 4° C.) and F4/80 to identify, macrophages (done by the McMaster Histology Facility). Slides were counterstained with hematoxylin, dehydrated twice with 90% ethanol, cleared twice with xylene, coverslipped with mounting media, and then left to dry overnight before imaging. Masson's trichrome, αSMA, CD3 and F4/80 were imaged under transmitted light and quantified using ImageJ. The Olympus IX81 fluorescence microscope driven by Metamorph was used to image and quantify PSR staining. Images were quantified by measuring the percentage of positive area. All micrographs were captured at ×20 magnification.

Each structure is given as a SMILES string.

As to `CC(C)(CCCCc1ccc(CCCCC(C)(C)C(=O)O)cc1)C(=O)O` [Compound I-1, 6-[4-(5-carboxy-5-methylhexyl)-phenyl]-2,2-dimethylhexanoic acid], the “T-lymphocyte infiltration (CD3 stain)” value was “no effect on T-lymphocytes”; the “UUO-induced increases in Trichrome and αSMA (renal fibrosis)” value is on record as “decreased”; the “macrophage infiltration (F4/80 stain)” value is recorded as “significantly reduced macrophage infiltration”.

Regarding `CC(C)(CCCCc1cccc(CCCCC(C)(C)C(=O)O)c1)C(=O)O` [Compound I-32, 6-[3-(5-carboxy-5-methylhexyl)-phenyl]-2,2-dimethylhexanoic acid], the “T-lymphocyte infiltration (CD3 stain)” value was “no effect on T-lymphocytes”; the “UUO-induced increases in Trichrome and αSMA (renal fibrosis)” value was “trend to reduction”; the “macrophage infiltration (F4/80 stain)” value was “significantly reduced macrophage infiltration”.
